Data from patent US20100061928A1, “LABELLED ANALOGUES OF HALOBENZAMIDES AS RADIOPHARMACEUTICALS” (Institut National De La Sante et De La Recherche Medicale …, priority 2006, published 2010).
Where a name gives a salt, the structure may show the parent alone.

How the values were obtained:
[1] = Elimination of the molecules: cumulative urinary and faecal excretion 0-72 hours; format: in vivo, mouse; conditions: for Faecal elimination 0-72 hours (Faeces) / Urinary and faecal elimination 0-72 hours (Total) / Urinary elimination 0-72 hours (Urine): cumulative excretion 0-72 hours; for Faecal elimination 0-72 hours (Faeces) / Urinary elimination 0-72 hours (Urine): mice in metabolic cages; for Urinary and faecal elimination 0-72 hours (Total): urine + faeces
tumour = assay: Dosimetry with regard to the tumour (MIRD programme, extrapolated to ^131I)
[2] = system: grafted B16 F0 murine melanoma tumour; assay: Biodistribution of the ^125I-labelled molecules in the melanoma-bearing mouse (autoradiography of whole-body sections); conditions: for Biodistribution, Mean, B 16 / Biodistribution, radioactivity concentration in B 16, Mean: B 16 tumour
[3] = 1 H after i.v., 125I-labelled, dose = 1.09 MBq
[4] = 3 H after i.v., 125I-labelled, dose = 1.09 MBq
[5] = 24 H after i.v., 125I-labelled, dose = 1.09 MBq
[6] = 72 H after i.v., 125I-labelled, dose = 1.09 MBq

In the case of CCN(CC)CCNC(=O)c1ccc(I)cc1 [BZA, N-(2-diethylaminoethyl)-4-iodobenzamide, reference compound], the “Faecal elimination 0-72 hours (Faeces)” value [1] is reported as 4.8%, the “Urinary and faecal elimination 0-72 hours (Total)” value [1] is reported as 87.9% and the “Urinary elimination 0-72 hours (Urine)” value [1] is reported as 83.1%. The “elimination route (in words)” value ([1]; urinary versus faecal, 0-72 hours) was “predominantly in the urine”, the Effective period (tumour; extrapolated to 131I labelling) was 17.8 h and the Biological period (tumour; from biodistribution data) was 19.6 hours.

With CCN(CC)CCNC(=O)c1cccc2cc3cc(I)ccc3nc12 [compound 111, N-(2-diethylaminoethyl)-7-iodoacridine-4-carboxamide dihydrochloride] the “Biodistribution, Mean, B 16” value ([2]; 1 H) was 4.78, the “Biodistribution, Mean, B 16” value ([2]; 3 H) was 3.98 and the “Biodistribution, Mean, B 16” value ([2]; 6 H) was 4.57. For the same compound, the “Biodistribution, Mean, B 16” value ([2]; 24 H) was 2.77, the “Biodistribution, Mean, B 16” value ([2]; 72 H) was 1.67 and the “Biodistribution, Mean, GB” value ([2]; 1 H) was 43.71. For the same compound, the “Biodistribution, Mean, GB” value ([2]; 6 H) was 12.79, the “Biodistribution, Mean, Ic” value ([2]; 1 H) was 23.92 and the “Biodistribution, Mean, Ic” value ([2]; 3 H) was 30.20. The “Biodistribution, Mean, Ic” value ([2]; 6 H) was 28.54, the “Biodistribution, Mean, Ic” value ([2]; 24 H) was 1.83 and the “Biodistribution, Mean, Ic” value ([2]; 72 H) was 0.75. For the same compound, the “Biodistribution, Mean, Sc” value ([2]; 1 H) was 10.16, the “Biodistribution, Mean, Sc” value ([2]; 3 H) was 9.56 and the “Biodistribution, Mean, Sc” value ([2]; 6 H) was 6.06. The “Biodistribution, Mean, Sc” value ([2]; 24 H) was 0.73, the “Biodistribution, Mean, blood” value ([2]; 1 H) was 0.75 and the “Biodistribution, Mean, blood” value ([2]; 3 H) was 0.54. For the same compound, the “Biodistribution, Mean, blood” value ([2]; 6 H) was 0.42, the “Biodistribution, Mean, brain” value ([2]; 1 H) was 0.28 and the “Biodistribution, Mean, brain” value ([2]; 3 H) was 0.27. The “Biodistribution, Mean, brain” value ([2]; 6 H) was 0.11, the “Biodistribution, Mean, kidney” value ([2]; 1 H) was 3.07 and the “Biodistribution, Mean, kidney” value ([2]; 3 H) was 1.27. For the same compound, the “Biodistribution, Mean, kidney” value ([2]; 6 H) was 0.77, the “Biodistribution, Mean, liver” value ([2]; 1 H) was 5.38 and the “Biodistribution, Mean, liver” value ([2]; 3 H) was 3.62. The “Biodistribution, Mean, liver” value ([2]; 6 H) was 2.16, the “Biodistribution, Mean, liver” value ([2]; 24 H) was 0.48 and the “Biodistribution, Mean, liver” value ([2]; 72 H) was 0.42. For the same compound, the “Biodistribution, Mean, lungs” value ([2]; 1 H) was 1.70, the “Biodistribution, Mean, lungs” value ([2]; 3 H) was 0.88 and the “Biodistribution, Mean, lungs” value ([2]; 6 H) was 0.59. The “Biodistribution, Mean, muscle” value ([2]; muscle, 1 H) was 0.30, the “Biodistribution, Mean, pancreas” value ([2]; 1 H) was 1.38 and the “Biodistribution, Mean, pancreas” value ([2]; 3 H) was 0.70. The “Biodistribution, Mean, spleen” value ([2]; 1 H) was 3.11, the “Biodistribution, Mean, spleen” value ([2]; 3 H) was 1.29 and the “Biodistribution, Mean, spleen” value ([2]; 6 H) was 0.87. The “Biodistribution, Mean, thyroid” value ([2]; 1 H) was 21.00, the “Biodistribution, Mean, thyroid” value ([2]; 24 H) was 40.73 and the “Biodistribution, Mean, thyroid” value ([2]; 72 H) was 38.07. The “Biodistribution, Mean, uvea” value ([2]; 1 H) was 3.83, the “Biodistribution, Mean, uvea” value ([2]; 3 H) was 4.69 and the “Biodistribution, Mean, uvea” value ([2]; 6 H) was 3.51. For the same compound, the “Biodistribution, Mean, uvea” value ([2]; 24 H) was 3.45, the “Biodistribution, Mean, uvea” value ([2]; 72 H) was 1.96 and the “Faecal elimination 0-72 hours (Faeces)” value [1] was 23.2%. For the same compound, the “Urinary and faecal elimination 0-72 hours (Total)” value [1] was 31.7% and the “Urinary elimination 0-72 hours (Urine)” value [1] was 8.5%.

In the case of CCCN(CCC)CCCCNC(=O)c1cnc2cc(I)ccc2n1 [compound 144, N-(4-dipropylaminobutyl)-6-iodoquinoxaline-2-carboxamide dihydrochloride], the “Biodistribution, radioactivity concentration in B 16, Mean” value (“Biodistribution … in B 16, Mean” below) [2, 3] is reported as 14.69 % ID/g, the “Biodistribution … in B 16, Mean” value [2, 4] is reported as 44.92 % ID/g and the “Biodistribution … in B 16, Mean” value [2, 5] is reported as 37.46 % ID/g. The “Biodistribution … in B 16, Mean” value [2, 6] was 24.02 % ID/g, the “Biodistribution, radioactivity concentration in Ic, Mean” value [2, 3] was 27.28 % ID/g and the “Biodistribution, radioactivity concentration in Ic, Mean” value [2, 4] was 29.12 % ID/g. For the same compound, the “Biodistribution, radioactivity concentration in Sc, Mean” value [2, 3] was 24.11 % ID/g, the “Biodistribution, radioactivity concentration in Sc, Mean” value [2, 4] was 34.86 % ID/g and the “tumour concentration, times higher than with BZA” value ([2]; at 72 hours (FIG. 1B)) was 31 times. For the same compound, the “Biodistribution, radioactivity concentration in blood, Mean” value [2, 3] was 1.85 % ID/g, the “Biodistribution, radioactivity concentration in blood, Mean” value [2, 4] was 1.61 % ID/g and the “Biodistribution, radioactivity concentration in brain, Mean” value [2, 3] was 0.75 % ID/g. For the same compound, the “Biodistribution, radioactivity concentration in brain, Mean” value [2, 4] was 0.46 % ID/g, the “tumour concentration, % of the injected dose per gram of tumour” value ([2]; from the first hour) was 14.7 % ID/g and the “Biodistribution, radioactivity concentration in kidney, Mean” value [2, 3] was 24.42 % ID/g. For the same compound, the “Biodistribution, radioactivity concentration in kidney, Mean” value [2, 4] was 17.73 % ID/g, the “Biodistribution, radioactivity concentration in liver, Mean” value [2, 3] was 12.84 % ID/g and the “Biodistribution, radioactivity concentration in liver, Mean” value [2, 4] was 7.84 % ID/g. For the same compound, the “Biodistribution, radioactivity concentration in lungs, Mean” value [2, 3] was 5.81 % ID/g, the “Biodistribution, radioactivity concentration in lungs, Mean” value [2, 4] was 4.91 % ID/g and the “Biodistribution, radioactivity concentration in muscle, Mean” value ([2]; muscle, 3 H after i.v., 125I-labelled, dose = 1.09 MBq) was 0.79 % ID/g. The “Biodistribution, radioactivity concentration in pancreas, Mean” value [2, 3] was 23.88 % ID/g, the “Biodistribution, radioactivity concentration in pancreas, Mean” value [2, 4] was 13.06 % ID/g and the “Biodistribution, radioactivity concentration in spleen, Mean” value [2, 3] was 18.70 % ID/g. The “Biodistribution, radioactivity concentration in spleen, Mean” value [2, 4] was 6.08 % ID/g, the “Biodistribution, radioactivity concentration in thyroid, Mean” value [2, 4] was 60.78 % ID/g and the “Biodistribution, radioactivity concentration in thyroid, Mean” value [2, 5] was 44.74 % ID/g. The “Biodistribution, radioactivity concentration in uvea, Mean” value (“Biodistribution … in uvea, Mean” for short) [2, 3] was 28.75 % ID/g, the “Biodistribution … in uvea, Mean” value [2, 4] was 41.75 % ID/g and the “Biodistribution … in uvea, Mean” value [2, 5] was 32.62 % ID/g. For the same compound, the “Biodistribution … in uvea, Mean” value [2, 6] was 23.28 % ID/g, the “Faecal elimination 0-72 hours (Faeces)” value [1] was 34.8% and the “Urinary and faecal elimination 0-72 hours (Total)” value [1] was 80.5%. For the same compound, the “Urinary elimination 0-72 hours (Urine)” value [1] was 45.7%.
